From ChEMBL document CHEMBL1122455, “(Mercaptopropanoyl)indoline-2-carboxylic acids and related compounds as potent angiotensin converting enzyme inhibitors and antihypertensive agents” (J Med Chem, 1983)

Assays:
[1] = target: T1, Angiotensin-converting enzyme (Rattus norvegicus, UniProt P47820); experiment: In vitro inhibitory activity against Angiotensin I converting enzyme
T1 sequence (P47820 whole entry): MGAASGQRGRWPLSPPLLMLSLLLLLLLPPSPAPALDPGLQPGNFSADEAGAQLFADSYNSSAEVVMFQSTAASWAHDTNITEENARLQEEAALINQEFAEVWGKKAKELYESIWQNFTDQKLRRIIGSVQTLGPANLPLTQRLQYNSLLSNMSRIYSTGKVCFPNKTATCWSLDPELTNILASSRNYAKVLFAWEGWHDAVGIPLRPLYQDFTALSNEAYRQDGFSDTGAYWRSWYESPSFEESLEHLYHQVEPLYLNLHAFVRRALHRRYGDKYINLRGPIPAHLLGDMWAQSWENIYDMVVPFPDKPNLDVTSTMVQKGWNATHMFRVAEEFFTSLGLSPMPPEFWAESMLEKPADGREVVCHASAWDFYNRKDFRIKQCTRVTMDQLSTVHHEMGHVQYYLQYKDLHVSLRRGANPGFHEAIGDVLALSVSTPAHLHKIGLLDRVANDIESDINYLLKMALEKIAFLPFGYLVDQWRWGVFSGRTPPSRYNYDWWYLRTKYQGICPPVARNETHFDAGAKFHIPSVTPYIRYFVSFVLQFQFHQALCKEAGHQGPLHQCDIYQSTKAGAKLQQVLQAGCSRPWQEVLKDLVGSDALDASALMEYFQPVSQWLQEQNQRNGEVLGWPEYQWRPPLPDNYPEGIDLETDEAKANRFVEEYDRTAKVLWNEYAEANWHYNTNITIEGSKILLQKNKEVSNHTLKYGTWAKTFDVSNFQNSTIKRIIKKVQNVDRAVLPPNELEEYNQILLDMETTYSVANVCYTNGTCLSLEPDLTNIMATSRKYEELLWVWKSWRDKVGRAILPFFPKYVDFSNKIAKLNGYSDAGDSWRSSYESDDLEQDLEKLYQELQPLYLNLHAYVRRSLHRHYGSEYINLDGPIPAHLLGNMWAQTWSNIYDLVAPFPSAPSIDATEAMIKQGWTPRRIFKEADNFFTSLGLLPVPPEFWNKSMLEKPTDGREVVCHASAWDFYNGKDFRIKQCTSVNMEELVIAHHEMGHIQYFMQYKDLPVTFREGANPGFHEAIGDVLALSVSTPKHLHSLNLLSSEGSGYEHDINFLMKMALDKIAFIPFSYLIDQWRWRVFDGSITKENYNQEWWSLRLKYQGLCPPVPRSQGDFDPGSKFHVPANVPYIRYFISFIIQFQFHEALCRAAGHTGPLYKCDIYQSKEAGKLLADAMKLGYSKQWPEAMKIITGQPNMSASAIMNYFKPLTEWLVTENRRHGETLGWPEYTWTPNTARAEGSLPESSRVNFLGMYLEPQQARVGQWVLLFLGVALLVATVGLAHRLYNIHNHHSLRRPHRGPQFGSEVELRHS

Rattus norvegicus [2] = experiment: Dose required to lower blood pressure of SHR by 25 mmHg at 4-h post dose p.o.; assay type: functional; settings: po
Rattus norvegicus [3] = experiment: Dose required to inhibit 50% of the angiotensin I induced vasopressor response p.o.; assay type: functional; settings: po, read-out: ID50 (the source's name)

Row | SMILES | IC50 [1] [µM] | ED25 (Rattus norvegicus [2]) [mg/kg] | ED50 (Rattus norvegicus [3]) [mg/kg]
1 | C[C@@H](CSC(=O)c1ccccc1)C(=O)N1c2ccccc2C[C@@H]1C(=O)O [listing 1 of 2 here] | > 100 |  | 
2 | CC(CSC(=O)c1ccccc1)C(=O)N1c2ccccc2CC1C(=O)O (stereo in doubt; form 2) | 0.078 |  | 
3 | C1CCC(NC2CCCCC2)CC1.COc1ccc2c(c1)C[C@@H](C(=O)O)N2C(=O)[C@H](C)CSC(=O)c1ccccc1 | 0.042 | 20 | 
4 | C[C@@H](CSC(=O)c1ccccc1)C(=O)N1c2ccccc2C[C@H]1C(=O)O (racemic) | 3.5 |  | 
5 | C[C@@H](CSC(=O)c1ccccc1)C(=O)N1c2ccccc2C[C@@H]1C(=O)O (racemic) | 1.2 | 100 | 
6 | C=C(C)C(=O)N1c2ccc(OC)cc2CC1C(=O)O (stereo not drawn) | > 1000 |  | 
7 | C[C@H](CSC(=O)c1ccccc1)C(=O)N1c2ccccc2C[C@H]1C(=O)O [listing 1 of 2 here] | 0.32 |  | 
8 | CC(=O)SCC(C)C(=O)N1c2ccccc2CC1C(=O)O (stereo in doubt; form 2) | 0.011 | 13 | 
9 | CC(CSC(=O)c1ccccc1)C(=O)N1c2ccccc2CC1C(=O)O (stereo in doubt; form 1) | 0.41 |  | 
10 | C[C@H](CS)C(=O)N1CCC[C@H]1C(=O)O [CAPTOPRIL] |  | 17.8 | 0.57
11 | CCc1ccc2c(c1)CC(C(=O)O)N2C(=O)C(C)CSC(=O)c1ccccc1 (stereo not drawn) | 0.03 | > 100 | 
12 | C=C(C)C(=O)N1c2ccccc2C[C@H]1C(=O)O | > 100 |  | 
13 | C=C(C)C(=O)N1c2ccccc2CC1C(=O)O (stereo not drawn) | > 1000 |  | 
14 | C[C@H](CSC(=O)c1ccccc1)C(=O)N1c2ccccc2C[C@H]1C(=O)O [listing 2 of 2 here] | 0.038 | 1.03 | 2
15 | C1CCC(NC2CCCCC2)CC1.C[C@@H](CSC(=O)c1ccccc1)C(=O)N1c2ccccc2C[C@H]1C(=O)O | 0.54 | 39 | 
16 | C[C@@H]1CSC(=O)[C@H]2Cc3ccccc3N2C1=O | 20 |  | 
17 | O=C(SCCC(=O)N1c2ccccc2CC1C(=O)O)c1ccccc1 (stereo not drawn) | 0.059 | 12.5 | 1.95
18 | C=CC(=O)N1c2ccccc2CC1C(=O)O (stereo not drawn) | > 1000 |  | 
19 | C=C(C)C(=O)N1c2ccccc2C[C@@H]1C(=O)O | > 1000 |  | 
20 | C[C@@H]1CSC(=O)[C@@H]2Cc3ccccc3N2C1=O | 0.014 | 2 | 
21 | COc1ccc2c(c1)CC(C(=O)O)N2C(=O)C(C)CSC(=O)c1ccccc1 (stereo not drawn) [listing 1 of 2 here] | 0.094 |  | 
22 | C[C@H](CSC[C@@H](C)C(=O)N1c2ccccc2C[C@H]1C(=O)O)C(=O)N1c2ccccc2C[C@H]1C(=O)O | 1.3 | 24 | 
23 | C[C@@H](CSC(=O)c1ccccc1)C(=O)N1c2ccccc2C[C@@H]1C(=O)O [listing 2 of 2 here] | > 100 |  | 
24 | COc1ccc2c(c1)CC(C(=O)O)N2C(=O)C(C)CSC(=O)c1ccccc1 (stereo not drawn) [listing 2 of 2 here] | 0.097 |  | 
25 | C[C@@H](CSC(=O)c1ccccc1)C(=O)N1c2ccccc2C[C@H]1C(=O)O | 0.38 |  | 
26 | CC(=O)SCC(C)C(=O)N1c2ccccc2CC1C(=O)O (stereo in doubt; form 1) | 15 |  | 
